In patent publication US20180371044A1, “PEPTIDOMIMETIC MACROCYCLES” (Aileron Therapeutics, Inc., priority 2015, published 2018):
Where a SMILES comes first, the peptide text is derived from it. Bridges are numbered along the chain shown (N, C = ends). [ ]: non-standard residue; d: D form. NMeY = CN[C@@H](Cc1ccc(O)cc1)C(=O)O; R8 = C=CCCCCCC[C@@](C)(N)C(=O)O; Cit = NC(=O)NCCC[C@H](N)C(=O)O; S5 = C=CCCC[C@](C)(N)C(=O)O; Nle = CCCC[C@H](N)C(=O)O

Target: T1, human GHRH receptor (hGHRHR) (Homo sapiens, UniProt Q02643)
T1 construct: expressed in transfected cells; host or cells: Human 293 cells
T1 sequence (Q02643 23-423): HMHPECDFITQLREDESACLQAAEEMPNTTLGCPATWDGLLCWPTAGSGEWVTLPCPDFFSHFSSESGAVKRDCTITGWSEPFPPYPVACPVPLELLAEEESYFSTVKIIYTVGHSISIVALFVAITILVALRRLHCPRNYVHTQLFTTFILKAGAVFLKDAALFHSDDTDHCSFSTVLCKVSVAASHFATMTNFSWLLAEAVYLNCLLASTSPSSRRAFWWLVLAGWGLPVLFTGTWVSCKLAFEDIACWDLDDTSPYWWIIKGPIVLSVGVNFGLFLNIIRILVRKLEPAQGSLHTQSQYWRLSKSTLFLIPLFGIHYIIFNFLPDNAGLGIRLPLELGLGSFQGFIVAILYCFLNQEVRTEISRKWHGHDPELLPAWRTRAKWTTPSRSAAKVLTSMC
Assay: GHRHR agonism measured by cAMP (HTRF) in human 293 cells expressing hGHRHR;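 note: receptor expressed transiently or stably, cells stimulated in serum-free medium, EC50 from a non-linear dose-response fit, maximal response defined by reference GHRH stimulation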
Assay type: cell-based
Conditions: 30 min at RT

Compared with `CCCC[C@H](NC(=O)[C@@H](NC(=O)[C@H](CC(=O)O)NC(=O)[C@H](CCC(N)=O)NC(=O)[C@H](CC(C)C)NC(=O)[C@H](C)NC(=O)[C@H](CCCCN)NC(=O)[C@H](CCCNC(=N)N)NC(=O)[C@H](C)NC(=O)[C@]1(C)CCCC=CCCC[C@](C)(NC(=O)[C@@H](NC(=O)[C@H](CCCCN)NC(=O)[C@H](CCCNC(=N)N)NC(=O)[C@H](Cc2ccc(O)cc2)NC(=O)[C@H](CO)NC(=O)[C@H](C)NC(=O)[C@@H](NC(=O)[C@H](Cc2ccccc2)NC(=O)[C@@H](NC(=O)[C@H](C)NC(=O)[C@H](CC(=O)O)NC(=O)[C@H](C)NC(=O)[C@H](Cc2ccc(O)cc2)NC)[C@@H](C)CC)[C@@H](C)O)C(C)C)C(=O)N[C@@H](C)C(=O)N[C@@H](CCC(N)=O)C(=O)N[C@@H](CC(C)C)C(=O)N1)[C@@H](C)CC)C(=O)N[C@@H](CO)C(=O)N[C@@H](CCCNC(=N)N)C(N)=O` [SP-13] (H-[NMeY]ADAIFTASYRKV[S5]AQL[S5]ARKALQDI[Nle]SR-NH2; staple 14-18), `CCCC[C@H](NC(=O)[C@@H](NC(=O)[C@H](CC(=O)O)NC(=O)[C@H](CCC(N)=O)NC(=O)[C@H](CC(C)C)NC(=O)[C@H](C)NC(=O)[C@]1(C)CCCC=CCCC[C@](C)(NC(=O)[C@H](CCC(N)=O)NC(=O)[C@H](C)NC(=O)[C@H](CC(C)C)NC(=O)[C@@H](NC(=O)[C@H](CCCCN)NC(=O)[C@H](CCCNC(=N)N)NC(=O)[C@H](Cc2ccc(O)cc2)NC(=O)[C@H](CO)NC(=O)[C@H](C)NC(=O)[C@@H](NC(=O)[C@H](Cc2ccccc2)NC(=O)[C@@H](NC(=O)[C@H](C)NC(=O)[C@H](CC(=O)O)NC(=O)[C@H](C)NC(=O)[C@H](Cc2ccc(O)cc2)NC)[C@@H](C)CC)[C@@H](C)O)C(C)C)C(=O)N[C@@H](CO)C(=O)N[C@@H](C)C(=O)N[C@@H](CCCNC(=N)N)C(=O)N1)[C@@H](C)CC)C(=O)N[C@@H](CO)C(=O)N[C@@H](CCCNC(=N)N)C(N)=O` [SP-15] (H-[NMeY]ADAIFTASYRKVLAQ[S5]SAR[S5]ALQDI[Nle]SR-NH2; staple 17-21) is lower in EC50: 10 to 25 nM for the first, at most 1 nM for the second.

First: CCCC[C@H](NC(=O)[C@@H](NC(=O)[C@H](CC(=O)O)NC(=O)[C@H](CCC(N)=O)NC(=O)[C@H](CC(C)C)NC(=O)[C@H](C)NC(=O)[C@H](CCCCN)NC(=O)[C@H](CCCNC(N)=O)NC(=O)[C@H](C)NC(=O)[C@H](CO)NC(=O)[C@H](CC(C)C)NC(=O)[C@H](CCC(N)=O)NC(=O)[C@H](C)NC(=O)[C@H](CC(C)C)NC(=O)[C@@H](NC(=O)[C@H](CCCCN)NC(=O)[C@H](CCCNC(=N)N)NC(=O)[C@H](Cc1ccc(O)cc1)NC(=O)[C@H](CO)NC(=O)[C@H](C)NC(=O)[C@@H](NC(=O)[C@H](Cc1ccccc1)NC(=O)[C@@H](NC(=O)[C@H](C)NC(=O)[C@H](CC(=O)O)NC(=O)[C@H](C)NC(=O)[C@H](Cc1ccc(O)cc1)NC)[C@@H](C)CC)[C@@H](C)O)C(C)C)[C@@H](C)CC)C(=O)N[C@@H](CO)C(=O)N[C@@H](CCCNC(=N)N)C(N)=O [SP-48] (H-[NMeY]ADAIFTASYRKVLAQLSA[Cit]KALQDI[Nle]SR-NH2)
Second: CCCC[C@H](NC(=O)[C@@H](NC(=O)[C@H](CC(=O)O)NC(=O)[C@H](CCC(N)=O)NC(=O)[C@H](CC(C)C)NC(=O)[C@H](C)NC(=O)[C@]1(C)CCCC=CCCCCCC[C@@](C)(NC(=O)[C@@H](NC(=O)[C@H](CCCCN)NC(=O)[C@H](CCCNC(=N)N)NC(=O)[C@H](Cc2ccc(O)cc2)NC(=O)[C@H](CO)NC(=O)[C@H](C)NC(=O)[C@@H](NC(=O)[C@H](Cc2ccccc2)NC(=O)[C@@H](NC(=O)[C@H](C)NC(=O)[C@H](CC(=O)O)NC(=O)[C@H](C)NC(=O)[C@H](Cc2ccc(O)cc2)NC)[C@@H](C)CC)[C@@H](C)O)C(C)C)C(=O)N[C@@H](C)C(=O)N[C@@H](CCC(N)=O)C(=O)N[C@@H](CC(C)C)C(=O)N[C@@H](CO)C(=O)N[C@@H](C)C(=O)N[C@@H](CCCNC(=N)N)C(=O)N1)[C@@H](C)CC)C(=O)N[C@@H](CO)C(=O)N[C@@H](CCCNC(=N)N)C(N)=O [SP-26] (H-[NMeY]ADAIFTASYRKV[R8]AQLSAR[S5]ALQDI[Nle]SR-NH2; staple 14-21)
The EC50 of the first is lower: 1 to 10 nM for the first, 10 to 25 nM for the second. The first is the more potent here.
